Assays:
[1] = biological target: FALZ (Homo sapiens, UniProt Q12830); assay: AlphaScreen selectivity screen, FALZ; assay type: binding
Description: IC50 (µM) IC50 (µM) IC50 (µM) IC50 (µM) (µM) (µM) (µM)
Supplementary Table 1. […]

[2] = biological target: T1, endogenous MLLT1 in MV4;11 cells (Homo sapiens, UniProt Q03111); assay: Cellular thermal shift assay (CETSA), MV4;11 cells; assay type: cell-based; conditions: up to 10 μM
T1 construct: with endogenous MLLT1 in MV4;11 cells; endogenous in cells; host or cells: MV4;11
Experimental: Supplementary Table 2. Thermal stabilisation of compound 1, 92 and Bromosporine with recombinant human bromodomain proteins. *50 µM compound concentration. †10 µM compound […]
II.VIII Cellular Thermal Shift Assay[6]
HEK293 and MV4;11 cells were cultured at 37 °C in a humidified 5% CO2 atmosphere in DMEM Medium containing 10% FBS, respectively. Cells were grown until approximately […]
DMSO final concentrati on) for 30 minutes. Cells were then collected, washed with PBS, transferred in PCR tubes, and pelleted by centrifugation (300 g, 3 min, RT.) The PBS was removed, and the cell pellets heated at the indicated temperature for 3 minutes in a PCR machine (UNO96 , VMR) and then placed on ice. Lysis buffer (50 mM Tris pH 7.5, 0.8% v/v NP-40, 5% v/v glycerol, 1.5 mM MgCl2, 100 mM NaCl, 25 mM NaF, 1mM Na3VO4, 1mM PMSF, 1mM DTT, 10 μg/mL TLCK, 1 μg/mL Leupeptin, 1 μg/mL Aprotinin, 1 μg/mL soy bean trypsin, ≥250 units/ mL Benzonase) was added and the cells lysed by 3 freeze -thaw cycles in liquid nitrogen. Aggregated proteins were removed by centrifugation (17000 g, 20 min, 4 °C) and the protein concentration of the retained soluble fraction determined. 4× sample loading buffer (Bio-Rad) containing 20% v/v DTT was added and samples were heated for 6 min at 90 °C prior to separation by SDS -PAGE. […]

[3] = system: MV4;11 AML cells; assay: qPCR gene expression in MV4;11 cells; assay type: cell-based, human; conditions: 1 μM, 72 h
Experimental: II.XII Analysis of gene expression by quantitative polymerase chain reaction (qPCR) […]
MV4;11 cells were cultured at 37 °C in a humidified 5% CO2 atmosphere in RPMI medium containing 10% FBS and 1% L-glutamine. Cells were seeded at a density of 2 x 10^6 cells/well in 6 well plates pre-coated in polyhema, to enable suspension culture. Cells were […]
and washing with PBS, RNA was extracted from cells using RNeasy Mini Kit (Qiagen), following the manufacturer’s protocol. Total RNA was quantified by Nanodrop and 500 ng of RNA was converted to cDNA using GoScript Reverse Transcription System (Promega). The final cDNA products were quantified by QPCR using FAM dye-labelled Taqman primers and probe sets (see table below). Data was analysed using the comparative cycle threshold (CT) method where CT values were normalised by subtracting that from an endogenous housekeeping gene (VIC dye-labelled ACTB). The gene expression levels from compound-treated cells are presented as relative to those of DMSO treated control cells. Statistical analyses were carried out using two-way ANOVA (GraphPad Prism 7).
ACTB (Beta Actin) Endogenous Control 4326315E
Supplementary Table 4. Taqman Gene Expression Assays (Life Technologies). Taqman MGB probes have 5’ FAM reporter dye (or VIC) and 3’ non-fluorescent quencher. […]

[4] = biological target: T2, MLLT3 (Homo sapiens, UniProt P42568); assay: AlphaScreen assay, MLLT3; assay type: binding; conditions: Figure 1
T2 construct: made in house; host or cells: E. coli Rosetta
Experimental: Figure 1 Identified hit MLLT1/3 inhibitor compound 1.
II.IV Protein Expression and Purification
Human bromodomains were cloned, expressed and purified as previously described. The cloning, expression and purification of human YEATS domains are described as follows; Sequences for the wild type YEATS domains of MLLT1, MLLT3, GAS41 and YEATS2 were cloned into expression vectors (Table S1). E. coli Rosetta cells were grown in TB medium at 37°C. Overexpression was induced after five hours by addition of IPTG to a final concentration of 0.4 mM and cells were incubated at 17°C overnight. Cells were harvested by centrifugation and the cell pellet was resuspended in cold binding buffer (50 mM Tris at pH 7.5, 500 mM NaCl, 20 mM imidazole, 2 mM DTT) on a magnetic stirring plate at 4°C. The suspension was lysed using an Avestin EmulsiFlex-C5 homogeniser (1 pass without pressure, four passes with pressure between 1000-1500 bar). The lysate was clarified via centrifugation at 16,000 rpm at 4°C for 1 hour (JLA-16 rotor in Beckmann Coulter Avanti J-26S XP centrifuge). The supernatant was loaded onto a standard NiNTA column (HisTrap FF, 5 ml, GE Healthcare Lifesciences) on an ÄKTAxpress system (GE). […] Protein concentration was quantified via extinction at […] (NanoDrop ND-1000 Spectrophotometer) and protein identity was verified via SDS-PAGE and LC/MS. […]

[5] = system: 48 bromodomains; assay: Thermal shift assay, bromodomain panel; assay type: binding, human; conditions: 50 μM compound concentrations
Experimental: II.VII Thermal Shift Assay[6]
Thermal melting experiments were carried out using an Mx3005p Real Time PCR machine (Stratagene). Proteins were buffered in 10 mM HEPES pH 7.5, 500 mM NaCl and assayed in a 96-well plate at a final concentration of 2 μM in 20 μL volume. Compounds were added at a final concentration of 50 μM. SYPRO Orange (Molecular Probes) was added as a fluorescence probe at a dilution of 1:1000. Excitation and emission filters for the SYPRO-Orange dye were set to 465 nm and 590 nm, respectively. The temperature was raised with a step of 3 °C per minute from 25 °C to 96 °C and fluorescence readings were taken at each interval. The unfolding curves were fitted using the Boltzmann equation to determine the middle point of the transition.

T2 sequence (P42568 1-138 limits assumed): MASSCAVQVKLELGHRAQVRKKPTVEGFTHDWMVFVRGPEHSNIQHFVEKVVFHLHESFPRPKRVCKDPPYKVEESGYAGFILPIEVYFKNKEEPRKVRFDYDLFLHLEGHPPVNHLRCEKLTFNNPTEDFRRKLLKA
T1 sequence (Q03111 whole entry): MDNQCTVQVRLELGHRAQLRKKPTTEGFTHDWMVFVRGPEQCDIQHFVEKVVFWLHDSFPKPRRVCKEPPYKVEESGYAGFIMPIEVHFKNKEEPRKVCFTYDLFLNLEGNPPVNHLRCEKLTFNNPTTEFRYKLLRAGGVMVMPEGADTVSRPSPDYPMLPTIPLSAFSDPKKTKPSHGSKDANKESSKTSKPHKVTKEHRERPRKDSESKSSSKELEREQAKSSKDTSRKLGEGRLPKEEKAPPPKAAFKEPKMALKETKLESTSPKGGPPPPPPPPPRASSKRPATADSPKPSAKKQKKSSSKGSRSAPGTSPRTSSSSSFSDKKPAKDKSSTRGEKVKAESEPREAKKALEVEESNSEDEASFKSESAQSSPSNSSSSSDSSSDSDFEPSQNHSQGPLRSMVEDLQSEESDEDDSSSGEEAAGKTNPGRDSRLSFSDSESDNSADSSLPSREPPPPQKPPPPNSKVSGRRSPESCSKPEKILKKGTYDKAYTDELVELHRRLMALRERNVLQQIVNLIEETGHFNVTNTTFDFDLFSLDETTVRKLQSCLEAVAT

Compound | inhibition of FALZ ([1]; 10 μM using AS) | IC50 ([1]; AlphaScreen selectivity screen) | thermal stabilisation of MLLT1 (CETSA) [2] | gene expression of MYC, MPO, DDN, CTSG, CD86 (qPCR) [3] | CD86 gene expression (qPCR) ([3]; compared to DMSO) | DDN gene expression (qPCR) ([3]; compared to DMSO) | MYC gene expression (qPCR) ([3]; compared to DMSO) | IC50 [4] | activity against 48 bromodomains in thermal shift assay [5]
C[C@H]1CCCN1Cc1nc2cc(NC(=O)c3ccc4c(cnn4C)c3)ccc2[nH]1 [Compound 92] | no inhibition | > 10000 nM | stabilisation of MLLT1 | changed gene expression of 3/5 genes | increase | reduction | reduction | – | –
COC(=O)c1ccc(C(=O)Nc2ccc3[nH]c(CN4CCCCC4)nc3c2)cc1 [Compound 1] | – | – | – | – | – | – | – | 1000 nM | no activity

Reference: PMC6348381, “Discovery of an MLLT1/3 YEATS Domain Chemical Probe” (Angewandte Chemie (International Ed. in English), 2018)
